From the NIST ThermoML archive (doi:10.1016/j.fluid.2014.09.014)
Numbers after ± are expanded uncertainties.

Test: refractive index (other wavelength) (dimensionless); xn = mol fraction of the nth substance listed
Conditions: 313.15 K, 101 kPa, Liquid, Standard Abbe refractometry

CC(C)OC(C)C [diisopropyl ether] + CO
refractive index
Conditions	Wavelength=587.6 nm	Wavelength=589.3 nm	Wavelength=632.8 nm	Wavelength=644 nm
x2 = 0	–	1.35694 ± 0.00044	1.35572 ± 0.00043	1.35543 ± 0.00043
x2 = 0.0423	–	1.35688 ± 0.00043	1.35563 ± 0.00043	1.35534 ± 0.00043
x2 = 0.0424	–	1.3569 ± 0.00043	1.35568 ± 0.00043	1.3554 ± 0.00043
x2 = 0.082	–	1.35685 ± 0.00042	1.35562 ± 0.00042	1.35532 ± 0.00042
x2 = 0.0822	–	1.35704 ± 0.00042	1.35581 ± 0.00042	1.35552 ± 0.00042
x2 = 0.1171	–	1.3569 ± 0.00041	1.35567 ± 0.00041	1.35538 ± 0.00041
x2 = 0.1271	–	1.35691 ± 0.00041	1.35566 ± 0.00041	1.35538 ± 0.00041
x2 = 0.1827	–	1.35671 ± 0.0004	1.35548 ± 0.0004	1.35518 ± 0.0004
x2 = 0.2162	–	1.35656 ± 0.0004	1.35535 ± 0.0004	1.35505 ± 0.0004
x2 = 0.251	–	1.35622 ± 0.00039	1.35489 ± 0.00039	1.3546 ± 0.00039
x2 = 0.3298	–	1.35621 ± 0.00038	1.35494 ± 0.00038	1.35463 ± 0.00038
x2 = 0.3577	–	1.3559 ± 0.00038	1.35417 ± 0.00038	1.35388 ± 0.00038
x2 = 0.4497	–	1.35414 ± 0.00037	1.35292 ± 0.00037	1.35264 ± 0.00037
x2 = 0.4525	–	1.35454 ± 0.00037	1.35331 ± 0.00037	1.35302 ± 0.00037
x2 = 0.522	–	1.35241 ± 0.00035	1.3512 ± 0.00035	1.35091 ± 0.00035
x2 = 0.5543	1.3516 ± 0.00035	1.35155 ± 0.00035	1.35036 ± 0.00035	1.35008 ± 0.00035
x2 = 0.609	1.34934 ± 0.00034	1.34929 ± 0.00034	1.3481 ± 0.00034	1.34783 ± 0.00034
x2 = 0.6529	1.34786 ± 0.00034	1.34781 ± 0.00034	1.34667 ± 0.00034	1.34638 ± 0.00034
x2 = 0.7504	1.34401 ± 0.00033	1.34396 ± 0.00033	1.34279 ± 0.00033	1.34252 ± 0.00033
x2 = 0.804	1.33965 ± 0.00033	1.3396 ± 0.00035	1.33846 ± 0.00033	1.33821 ± 0.00033
x2 = 0.807	1.33975 ± 0.00033	1.3409 ± 0.00033	1.33854 ± 0.00033	1.33829 ± 0.00033
x2 = 0.8727	1.33626 ± 0.00032	1.33609 ± 0.00032	1.33509 ± 0.00032	1.33482 ± 0.00032
x2 = 0.9233	1.3284 ± 0.00033	1.32835 ± 0.00033	1.32726 ± 0.00033	1.32702 ± 0.00033
x2 = 0.9253	1.33006 ± 0.00032	1.33001 ± 0.00032	1.32891 ± 0.00032	1.32867 ± 0.00032
x2 = 0.9527	1.32712 ± 0.00032	1.32708 ± 0.00032	1.32598 ± 0.00032	–
x2 = 0.9773	1.32383 ± 0.00032	1.32378 ± 0.00032	1.32372 ± 0.00032	–
x2 = 0.989	1.32263 ± 0.00032	1.32259 ± 0.00032	1.32154 ± 0.00032	–
x2 = 0.9964	1.32167 ± 0.00032	1.32163 ± 0.00032	1.32058 ± 0.00032	–
